The source of these data is patent US6310091A, “Fungicidal saponin, CAY-1, and isolation thereof from Capsium species fruit” (The United States of America as represented by the …, priority 2000, dated 2001).

Read-outs that look alike come from different tables or passages of the source.

One test deals with Candida species. The note with it: a number of Candida species; cited from earlier work.
A further test has as its system Pneumocystis carinii. As to the kind of experiment: Effect on Pneumocystis carinii viability (ATP-driven bioluminescent assay). The class given is cell-based. Particulars: Pneumocystis carinii, read-out: Percent of Control Mean. The procedure: 3. Pneumocystis carinii. The effect of CAY-1 on Pneumocystis carinii was determined as described previously [Cushion et al., Antimicrob. Agents Chemother., 1997, 41:379-384, herein incorporated by reference]. This assay is based on an ATP-driven bioluminescent reaction and was used to determine the concentration of CAY-1 which decreased the P. carinii ATP pools.

Turning to cyclainorin, the inhibitory properties entry in the test with Candida species was “inhibitory properties”.
Turning to `CC1(C)[C@@H](O[C@@H]2OC[C@H](O[C@@H]3O[C@H](CO)[C@@H](O)[C@H](O)[C@H]3O[C@@H]3OC[C@H](O)[C@H](O)[C@H]3O)[C@H](O)[C@H]2O[C@@H]2O[C@H](CO)[C@@H](O)[C@H](O)[C@H]2O)CC[C@]2(C)[C@H]3CC[C@]45OC[C@@]6(CC[C@](C)(C=O)C[C@H]64)[C@H](O)C[C@@]5(C)[C@]3(C)CC[C@@H]12` [deglucocyclamin], in the test on Candida species, the inhibitory properties result was “inhibitory properties”.
With `N=C(N)c1ccc(OCCCCCOc2ccc(C(=N)N)cc2)cc1` [Pentamidine, reference compound], the activity at 2.9 µM came out at 46.2% in the test on Pneumocystis carinii (24 h), 22% with Pneumocystis carinii (48 h) and 3.9% with Pneumocystis carinii (72 h). The activity at 29 µM in the test with Pneumocystis carinii (24 h) is 5.4%; in the test on Pneumocystis carinii (48 h) it was 3.5%; with Pneumocystis carinii (72 h), 1.2%.
Consider `CC1(C)S[C@@H]2[C@H](NC(=O)[C@H](N)c3ccccc3)C(=O)N2[C@H]1C(=O)O` [Ampicillin, reference compound], for which the activity at 29 µM came out at 96% in the test with Pneumocystis carinii (24 h, Day 1, 10 μg/ml, 29 μM); 94.7% in the test on Pneumocystis carinii (48 h, Day 2, 10 μg/ml, 29 μM); 94.8% in the test with Pneumocystis carinii (72 h, Day 3, 10 μg/ml, 29 μM).
